Laboratory results as given in publication PMC8284453 (Antimicrobial Agents and Chemotherapy, 2021).
Values after ≈ are worked out from the molar mass of the structure shown. Values joined by “and” are separate entries in the source; they are usually repeats but may differ in a detail not shown here. Equal entries are not always repeated. Where two headings read alike, the source gives them in different places.

Tests used:
[1] = test system: Enterobacterales expressing class D oxacillinases (OXA-48/48-like); assay: organism not typed; type: cell-based, E. coli, K. pneumoniae; conditions: K. pneumoniae SI-C17 (OXA-48)
[2] = test system: isogenic strains of E. coli expressing Ambler class A, B, C, and D enzymes; assay: microbe, parasite or virus in culture; type: cell-based, Escherichia coli
E. coli ESBL4 (CTX-M-15) [3] = assay: Broth microdilution MIC; type: cell-based; conditions: Escherichia coli
[4] = test system: E. cloacae ECL01 (TEM-72, ACT-1, P99AmpC); assay: Broth microdilution MIC; type: cell-based; conditions: Enterobacter cloacae
[5] = test system: K. pneumoniae ATCC BAA-1705 (KPC-2); assay: Broth microdilution MIC; type: cell-based; conditions: Klebsiella pneumoniae, ATCCBAA1705
[6] = test system: K. pneumoniae 752286 (OXA-48); assay: Broth microdilution MIC; type: cell-based; conditions: Klebsiella pneumoniae
[7] = test system: E. cloacae ECL01 (TEM-72, ACT-1, P99AmpC); assay: 24-h time-kill assay; type: cell-based; conditions: Enterobacter cloacae; lowest concentration with ≥3-log10 CFU/ml reduction at 24 h; read-out: MBC
Protocol: (§1) In vitro antibacterial time-kill assay. […] Time-kill assays were performed in 14 ml glass tubes or deep-well storage plates with a bacterial inoculum in CAMHB of 5 × 10^5 CFU/ml. The tubes/plates were incubated at 37°C with shaking at 200 rpm, and aliquots were drawn at six time points (0, 2, 4, 6, 8, and 24 h) to conduct 0.5 log10 dilutions in CAMHB in 96-well plates that were incubated overnight at 37°C and used to ascertain viable bacterial counts. The lowest quantifiable amount by this method is 2 log10 CFU/ml.

E. coli ESBL4 (CTX-M-15) [8] = assay: 24-h time-kill assay; type: cell-based
Protocol: as §1

[9] = test system: K. pneumoniae 752286 (OXA-48); assay: 24-h time-kill assay; type: cell-based; conditions: Klebsiella pneumoniae, 24 h
Protocol: as §1

[10] = test system: K. pneumoniae ATCC BAA-1705 (KPC-2); assay: 24-h time-kill assay; type: cell-based; conditions: Klebsiella pneumoniae, ATCCBAA1705; lowest concentration with ≥3-log10 CFU/ml reduction at 24 h; read-out: MBC
Protocol: as §1

[11] = test system: Enterobacterales expressing class C cephalosporinases
[12] = test system: Enterobacterales expressing class C cephalosporinases; assay: organism not typed

Nc1nc(/C(=C/CC(=O)O)C(=O)N[C@@H]2C(=O)N3C(C(=O)O)=CCS[C@H]23)cs1 [CTB, ceftibuten]
MIC [1]: ≥ 64 µg/mL | Fold increase in MIC compared to vector control [2]: 16 and 32 | Fold increase in MIC compared to vector control ([2]; E. coli expressing ACT-17 (class C), inhibitor fixed at 4 μg/ml): 1,024 | Fold increase in MIC compared to vector control ([2]; E. coli expressing CMY-2 (class C), inhibitor fixed at 4 μg/ml): 1,024 | Fold increase in MIC compared to vector control ([2]; E. coli expressing CMY-42 (class C), inhibitor fixed at 4 μg/ml): ≥1,024 | Fold increase in MIC compared to vector control ([2]; E. coli expressing CTX-M-15 (class A), inhibitor fixed at 4 μg/ml): 64 | Fold increase in MIC compared to vector control ([2]; E. coli expressing GES-5 (class A), inhibitor fixed at 4 μg/ml): 8 | Fold increase in MIC compared to vector control ([2]; E. coli expressing NDM-1 (class B), inhibitor fixed at 4 μg/ml): ≥1,024 | Fold increase in MIC compared to vector control ([2]; E. coli expressing OXA-23 (class D), inhibitor fixed at 4 μg/ml): 2 | Fold increase in MIC compared to vector control ([2]; E. coli expressing OXA-48 (class D), inhibitor fixed at 4 μg/ml): 4 | Fold increase in MIC compared to vector control ([2]; E. coli expressing OXA-163 (class D), inhibitor fixed at 4 μg/ml): 32 | Fold increase in MIC compared to vector control ([2]; E. coli expressing OXA-181 (class D), inhibitor fixed at 4 μg/ml): 2 | Fold increase in MIC compared to vector control ([2]; E. coli expressing P99/AmpC (class C), inhibitor fixed at 4 μg/ml): ≥1,024 | Fold increase in MIC compared to vector control ([2]; E. coli expressing PER-1 (class A), inhibitor fixed at 4 μg/ml): 1,024 | Fold increase in MIC compared to vector control ([2]; E. coli expressing SHV-5 (class A), inhibitor fixed at 4 μg/ml): 128 | Fold increase in MIC compared to vector control ([2]; E. coli expressing SHV-12 (class A), inhibitor fixed at 4 μg/ml): 256 | Fold increase in MIC compared to vector control ([2]; E. coli expressing TEM-10 (class A), inhibitor fixed at 4 μg/ml, modal MIC, 4 replicates): 4 | Fold increase in MIC compared to vector control ([2]; E. coli expressing VEB-9 (class A), inhibitor fixed at 4 μg/ml): ≥1,024 | MIC ([2]; Escherichia coli, read-out: Vector control MIC): 1 µg/mL (≈ 2.44 µM) | MIC (E. coli ESBL4 (CTX-M-15) [3]): 32 µg/mL (≈ 78 µM) | MIC [4]: 64 µg/mL (≈ 156 µM) | MIC [5]: 16 µg/mL (≈ 39 µM) | MIC [6]: 128 µg/mL (≈ 312 µM) | MBC [7]: > 32 µg/mL | MBC (E. coli ESBL4 (CTX-M-15) [8]; Escherichia coli, lowest concentration with ≥3-log10 CFU/ml reduction at 24 h, read-out: MBC): > 32 µg/mL | outcome of 24-h time-kill assay (E. coli ESBL4 (CTX-M-15) [8]; Fig. 3a, CTB 2 μg/ml with BLI at 4 μg/ml, CTB alone 8 μg/ml, amoxicillin 8/clavulanic acid 4 μg/ml, penems 2 μg/ml): initial killing, but the strains grew to control levels by 24 h | MBC [9]: ≥ 128 µg/mL | MBC [10]: 16 µg/mL (≈ 39 µM) | MIC90 ([11]; 25 isolates, BLI fixed at 4 μg/ml, AMC 2:1): ≥ 64 µg/mL | MIC ([11]; C. freundii 134390 (AmpC, TEM-1)): 4 µg/mL (≈ 9.75 µM) | MIC ([11]; E. aerogenes 110099 (AmpC, SHV-12)): 32 µg/mL (≈ 78 µM) | MIC ([11]; E. aerogenes 111707 (AmpC, TEM-1)): 2 µg/mL (≈ 4.87 µM) | MIC ([11]; E. aerogenes 111902 (AmpC, TEM-1)): ≥ 64 µg/mL | MIC ([11]; E. coli 128 (AmpC, SHV-12, TEM-1, Toho-2)): 2 µg/mL (≈ 4.87 µM) | MIC ([11]; E. coli 3102 (AmpC, CTX-M-15, TEM-1)): 32 µg/mL (≈ 78 µM) | MIC ([11]; E. coli CH1 (AmpC, CTX-M-15, SHV-1, SHV-5, TEM-1)): ≥ 64 µg/mL | MIC ([11]; E. coli EC469 (AmpC, SHV-12, TEM-1)): 2 µg/mL (≈ 4.87 µM) | MIC ([11]; E. coli J53 (AmpC, SHV-5, TEM-1)): 8 µg/mL (≈ 19.5 µM) | MIC ([11]; E. coli SI-P026TC (CMY-2, TEM-1)): ≥ 64 µg/mL | MIC ([11]; E. coli SI-PO26 (AmpC, CMY-2, TEM-1)): ≥ 64 µg/mL | MIC ([11]; K. pneumoniae 129032 (MOX-2, SHV-12, TEM-1)): 16 µg/mL (≈ 39 µM) | MIC ([11]; K. pneumoniae 178279 (AmpC, SHV-12, TEM-1)): 8 µg/mL (≈ 19.5 µM) | MIC ([11]; K. pneumoniae 212027 (AmpC, FOX-5, TEM-1)): 16 µg/mL (≈ 39 µM) | MIC ([11]; K. pneumoniae 217917 (CMY-2, TEM-1)): 8 µg/mL (≈ 19.5 µM) | MIC ([11]; K. pneumoniae 301313 (AmpC, SHV-12, TEM-1)): ≥ 64 µg/mL | MIC ([11]; K. pneumoniae 398845 (CMY-2, SHV-12, TEM-1)): 16 µg/mL (≈ 39 µM) | MIC ([11]; K. pneumoniae SI-F100 (CMY-2, SHV-5, TEM-1)): 2 µg/mL (≈ 4.87 µM) | MIC ([11]; P. mirabilis SI-F014 (AmpC, TEM-72)): ≥ 64 µg/mL | MIC ([11]; S. marcescens 132253 (AmpC, CTX-M-3, OXA-1, SHV-12, TEM-1)): ≥ 64 µg/mL | MIC ([11]; S. marcescens 134434 (AmpC, SHV-12, TEM-1)): 32 µg/mL (≈ 78 µM) | MIC ([11]; S. marcescens 142397 (AmpC, SHV-7, TEM-1)): ≥ 64 µg/mL | MIC ([11]; S. marcescens 156212 (AmpC, SHV-12, TEM-1)): 8 µg/mL (≈ 19.5 µM) | MIC ([11]; S. marcescens 192478 (AmpC, SHV-12, TEM-1)): 8 µg/mL (≈ 19.5 µM) | MIC ([11]; S. marcescens 218068 (AmpC, SHV-7, TEM-1)): 32 µg/mL (≈ 78 µM) | MIC50 [12]: 16 µg/mL (≈ 39 µM) | MIC90 [12]: ≥ 64 µg/mL
